From patent US11986647B2, “Treating autoinflammatory and mitochondrial diseases using an alternating electric field” (Novocure GmbH, priority 2018, dated 2024)
Where “and” joins values, the source holds several entries; their conditions need not be identical. Equal entries are not always repeated.

Tests used:
brain tumor cell lines = assay: IC50 determination through drug-response curves; type: cell-based; conditions: range across the brain tumor cell lines
Method: (§1) Cells were treated with TMZ (Sigma-Aldrich), Paclitaxel (Sigma-Aldrich) and Mebendazole (Sigma-Aldrich) as a monotherapy or in combination with TTFields. Each of the drugs were administered at their IC50 (high dose) or 10% IC50 (low dose), with the IC50s being determined through drug-response curves.
(§2) PrestoBlue™ was added to each sample at a time-point at a 1:10 dilution. Samples were incubated at 37° C. for 30 minutes. 100 μ1 (triplicate) of the PrestoBlue solution was transferred to a black-bottomed 96-well plate and fluorescence was analyzed via UV-Vis Spectroscopy at excitation/emission wavelengths at 560/590 nm with the FLUOstar Omega (BMG Labtech).

SF188 cells = conditions: human, 72 h
Method: as §1
(§3) TTFields were applied using the Inovitro™ system (Novocure, Haifa). The system consists of two pairs of perpendicular transducer arrays on the outer walls of a ceramic Petri dish. A sinusoidal waveform generator was attached to the transducer arrays to produce alternating electric fields at frequencies between 100-400 kHz and 1.75V/cm intensity. The electric fields alternated orientation of 90° every second. The temperature was measured to be 37° C. inside the dishes by 2 thermistors attached to the ceramic walls.
as §2

UW228-3 cells = conditions: human, 72 h
Method: as §1, §3, §2

BXD-1425EPN cells = conditions: human, 72 h
Method: as §1, §3, §2

Row | SMILES | IC50 (brain tumor cell lines) | reduction of cell viability (SF188 cells) | reduction of cell viability (UW228-3 cells) | reduction of cell viability (BXD-1425EPN cells)
1 | COC(=O)Nc1nc2ccc(C(=O)c3ccccc3)cc2[nH]1 [Mebendazole] | 30 to 1200 nM and 20 to 1200 nM | 39% | 28% | 30%
2 | CC(=O)O[C@H]1C(=O)[C@@]2(C)[C@H]([C@H](OC(=O)c3ccccc3)[C@]3(O)C[C@H](OC(=O)[C@H](O)[C@@H](NC(=O)c4ccccc4)c4ccccc4)C(C)=C1C3(C)C)[C@]1(OC(C)=O)CO[C@@H]1C[C@@H]2O [Paclitaxel] | 0.36 to 4.6 nM and 0.4 to 4.6 nM | 30% | 32% | 23%
